The subject of one series is 4T1 cells. The experiment in a line: In-vivo EDHB experiment, 4T1 tumors in mammary fat pad. Also on record: species or system female BALB/c mice. How it is done:
In-vivo EDHB experiment: Eight-week-old female BALB/c mice were inoculated with 4T1 in the mammary fat pad (1 × 10^6 cells). ethyl 3,4 dihydroxybenzoate (EDHB) treatment was started after 4 days when the primary tumor nodule was established and palpable. EDHB (40 mg per kg) was intraperitoneally injected daily into cancer-bearing mice. EDHB was initially dissolved in 100% Ethanol and diluted to required concentration in saline. 95% Saline/5% Ethanol mix without drug was injected as a vehicle to control animals. Following injection, mice were treated with 250 ug of anti PD-1 antibody on days 7, 11, 13, 15. On day 19, mice were euthanized and tumors were removed and weighted.

The test system of another series is 4T1 breast cancer cells. Kind of series: In-vitro EDHB nucleotide analysis by LC-MS, 4T1. Type of series: cell-based, murine. The note with it: 4T1 cells, 200 uM EDHB, 8 hours.
Series [1] has as its system NSCLC PDX explants with autologous CD8+ T cells. Kind of series: Co-culture of NSCLC PDX tumor explants with autologous CD8+ T cells, IFNγ ELISA. It is filed as cell-based, human. The following applies: for IFNγ secretion by autologous CD8+ T cells, anti-PD1 plus mizoribine-treated explants: explants pre-treated with mizoribine 0.3 mM 10 hrs, nivolumab or pembrolizumab 20 µg/mL, 18 hours. The text has this:
Two patients bearing metastatic non-small cell lung cancer (NSCLC) were included in this study. Blood samples and fresh tumor tissue samples were procured just after their biopsy with patient consent and with Helsinki approval (number 0093-19-SOR). The samples were placed in serum free DMEM (Gibco) media then processed for implantation in NSG (NOD scid gamma) mice. Tumor tissue samples were implanted subcutaneously in dorsal flanks of the mice to form patient-derived xenografts (PDXs). All animal experiments were done under Institutional Animal Care and Use Committee (IACUC) of Ben-Gurion University of the Negev (BGU’s IACUC) according to specified protocols aiming to ensure animal welfare and reduce su □ ering. The Animal ethical clearance protocol number used for this research is IL-80-12-2015. After isolation of peripheral blood mononuclear cells (PBMCs) from the peripheral blood of the patients according to standard protocol using Lymphocyte Separation Medium (LSM, MP Biomedicals, SKU 0850494-CF), CD8^+ T cells were isolated from PBMCs by employing human CD8 Microbeads (Miltenyi Biotec, 130-045-201), LS column (Miltenyi Biotec, 130-042-401) and MidiMACS Separator (130-042-302) following manufacturer’s protocol. For culturing and maintenance of CD8 T cells, RPMI containing 10% human male AB plasma (Sigma, H4522), 1 mM sodium pyruvate, 2 mM L-glutamine, 0.1 mM MEM non-essential amino acids, 1% penicillin/streptomycin, 10 mM HEPES (Life Technologies), 200 IU/mL recombinant human IL-2 (PeproTech) and 50 ng/mL anti-human CD3 Antibody (BioLegend, 317302) were used for the first 48 hrs followed by culturing and passaging in media containing 200 IU/mL of IL-2.
2×2×2 mm^3 tumor tissue explants were cut from PDXs with a specific tissue cutter and seeded singly in 48 well flat-bottom plates and incubated with either mizoribine (0.3 mM) in 400 µl of media or with only media for 10 hrs. Then, explants were washed once and transferred into new 48 well flat-bottom plates containing 2×10^5 CD8+T cells/well along with nivolumab (Opdivo, 20 µg/mL), pembrolizumab (Keytruda, 20 µg/mL) or mock solventin fresh 400 µl RPMI containing 20 IU/ml ofIL-2. After 18 hours of incubation, the supernatant was collected from the wells and then assayed for standard IFNγ ELISA assay (ELISA MAX, Biolegend) according to manufacturer’s instructions.
Two patients bearing metastatic non-small cell lung cancer (NSCLC) were included in this study. Blood samples and fresh tumor tissue samples were procured just after their biopsy with patient consent and with Helsinki approval (number 0093-19-SOR). The samples were placed in serum free DMEM (Gibco) media then processed for implantation in NSG (NOD scid gamma) mice (NOD.Cg-Prkdcscid Il2rgtm1Wjl, The Jackson Laboratory). Tumor tissue samples were implanted subcutaneously in dorsal flanks of the 7-9 weeks old male mice to form patient-derived xenografts (PDXs).
After isolation of peripheral blood mononuclear cells (PBMCs) from the peripheral blood of the patients according to standard protocol using Lymphocyte Separation Medium (LSM, MP Biomedicals, SKU 0850494-CF), CD8^+ T cells were isolated from PBMCs by employing human CD8 Microbeads (Miltenyi Biotec, 130-045-201), LS column (Miltenyi Biotec, 130-042-401) and MidiMACS Separator (130-042-302) following manufacturer’s protocol. For culturing and maintenance of CD8 T cells, RPMI containing 10% human male AB plasma (Sigma, H4522), 1 mM sodium pyruvate, 2 mM L-glutamine, 0.1 mM MEM non-essential amino acids, 1% penicillin/streptomycin, 10 mM HEPES (Life Technologies), 200 IU/mL recombinant human IL-2 (PeproTech) and 50 ng/mL anti-human CD3 Antibody (BioLegend, 317302) were used for the first 48 hrs followed by culturing and passaging in media containing 200 IU/mL of IL-2.
PDXs from patients with lung cancer non responsive to anti-PD1 were exposed to no treatment, to mizoribine, or to either EDHB (left panel) or Viagra (right panel). […]
For orientation: In an ELISA, binding on a coated surface is turned into a signal by an enzyme label.

The test system of another series is A549 cells. The experiment in a line: Nucleotide levels by LC-MS with or without methotrexate. Type of series: cell-based. The following applies: 1.2 µM Methotrexate. How it is done:
Methotrexate treatment: A549 cells were grown for 48 hr in control medium or supplemented with 1.2 µM Methotrexate (Holland-Moran). Nucleotide levels were measured as described below by LC-MS. Purine/pyrimidine ratio was calculated by dividing (AMP+GMP+ATP+ADP+GTP) concentration by (UMP+CMP+TMP+UTP+CTP+TTP) concentration.
LC-MS analysis: The LC-MS/MS instrument consisting of an Acquity I-class UPLC system (Waters) and Xevo TQ-S triple quadrupole mass spectrometer (Waters), equipped with an electrospray ion source, and operated in positive ion mode was used for analysis of nucleoside monophosphates. MassLynx and TargetLynx software (version 4.1, Waters) were applied for the acquisition and analysis of data. Chromatographic separation was done on a 100 mm × 2.1 mm internal diameter, 1.8-µm UPLC HSS T3 column equipped with 50 mm × 2.1 mm internal diameter, 1.8-µm UPLC HSS T3 pre-column (both Waters Acquity) with mobile phases A (10 mM ammonium acetate and 5 mM ammonium hydrocarbonate buffer, pH 7.65 adjusted with 10% acetic acid) and B (acetonitrile) at a flow rate of 0.3 mL min-1 and column temperature 25° C. A gradient was used as follows: for 0-3 min the column was held at 0.2% B, then 3-3.5 min a linear increase to 100% B, 3.5-4.0 min held at 100% B, 4.0-4.5 min back to 0.2% B and equilibration at 0.2% B for 2.5 min. Samples kept at 8° C. were automatically injected in a volume of 3 µl. For mass spectrometry, argon was used as the collision gas with a flow of 0.10 mL min-1. The capillary voltage was set to 2.50 kV, source temperature 150° C., desolvation temperature 400° C., cone gas flow 150 1 hr-1, desolvation gas flow 800 1 hr-1. Nucleotide concentration was calculated using a standard curve of the relevant nucleotide concentration in each sample. Standard curves included increasing concentration of all measured nucleotides ranging from 0-10 ug/ml that were positioned at the beginning and at the end of each run. All the calculated values for the different nucleotides in each sample fell within the standard curve range. Analytes were detected in positive mode using multiple-reaction monitoring listed in Lee, J. S. et al. 2018 (REF_9).
Nucleotide levels of 4T1 cells grown either with or without 1.2 µM Methotrexate (Holland-Moran) for 48 h, were measured and quantified by liquid chromatography-mass spectrometry (LC-MS) as µg/mg protein.

From the text for 4T1 breast cancer cells: LC-MS analysis: The LC-MS/MS instrument consisting of an Acquity I-class UPLC system (Waters) and Xevo TQ-S triple quadrupole mass spectrometer (Waters), equipped with an electrospray ion source, and operated in positive ion mode was used for analysis of nucleoside monophosphates. MassLynx and TargetLynx software (version 4.1, Waters) were applied for the acquisition and analysis of data. Chromatographic separation was done on a 100 mm × 2.1 mm internal diameter, 1.8-µm UPLC HSS T3 column equipped with 50 mm × 2.1 mm internal diameter, 1.8-µm UPLC HSS T3 pre-column (both Waters Acquity) with mobile phases A (10 mM ammonium acetate and 5 mM ammonium hydrocarbonate buffer, pH 7.65 adjusted with 10% acetic acid) and B (acetonitrile) at a flow rate of 0.3 mL min-1 and column temperature 25° C. […] Nucleotide concentration was calculated using a standard curve of the relevant nucleotide concentration in each sample. Standard curves included increasing concentration of all measured nucleotides ranging from 0-10 ug/ml that were positioned at the beginning and at the end of each run. All the calculated values for the different nucleotides in each sample fell within the standard curve range. […]

With `CCOC(=O)c1ccc(O)c(O)c1` [EDHB, Ethyl 3,4 dihydroxybenzoate], the “tumor weight, EDHB and anti PD-1 combination treatment” value in the series on 4T1 cells (40 mg/kg EDHB IP daily from day 4, 250 ug anti PD-1 IP days 7, 11, 13, 15) was “reduces tumor weight”. The “total weight of the mice” value in the series with 4T1 cells (40 mg/kg EDHB IP daily, with anti PD-1) is “did not cause any change”. The “cellular deoxypyrimidine to deoxypurine ratio (pyrimidine / purine ratio)” value in the series on 4T1 breast cancer cells is given as “increase in pyrimidine / purine ratio”. For the same compound, in series [1] (PDXs from lung cancer patients non responsive to anti-PD1, IFN-g measured following anti-PD1), the “response to anti-PD1 therapy (IFN-g response) in PDX of non responsive patients” value is “increases response to anti-PD1 therapy”.
With nivolumab: anti-PD1 antibody, the “IFNγ secretion by autologous CD8+ T cells, anti-PD1 plus mizoribine-treated explants” value in series [1] is reported as “significant elevation in IFNγ secretion”.
With pembrolizumab: anti-PD1 antibody, the “IFNγ secretion by autologous CD8+ T cells, anti-PD1 plus mizoribine-treated explants” value in series [1] is “significant elevation in IFNγ secretion”.
Turning to `CN(Cc1cnc2nc(N)nc(N)c2n1)c1ccc(C(=O)N[C@@H](CCC(=O)O)C(=O)O)cc1` [Methotrexate], in the series on A549 cells (48 h, 4T1 cells), the “AMP level, Methotrexate Treatment” value came out at 483.2 µg/mg pt; the “ATP level, Methotrexate Treatment” value is reported as 75.1 µg/mg pt; the “CMP level, Methotrexate Treatment” value was 7.3 µg/mg pt; the “CTP level, Methotrexate Treatment” value was found to be 12.0 µg/mg pt. In addition, in the series with A549 cells (48 h, 4T1 cells), the “GMP level, Methotrexate Treatment” value was 28.46 µg/mg pt; the “GTP level, Methotrexate Treatment” value was determined as 16.7 µg/mg pt; the “TMP level, Methotrexate Treatment” value came out at 0.0078 µg/mg pt; the “TTP level, Methotrexate Treatment” value is 0.004432 µg/mg pt. Further, in the series with A549 cells (48 h, 4T1 cells), the “UMP level, Methotrexate Treatment” value is 38.39 µg/mg pt and the “UTP level, Methotrexate Treatment” value amounted to 36.9 µg/mg pt. The “purine to pyrimidine ratio” value in the series on A549 cells (high ASS1 expressing lung cancer cells (A549), 48 hr) is recorded as “decreased their purine to pyrimidine ratio”.

These data come from US20230293530A1, “AGENTS FOR SENSITIZING SOLID TUMORS TO TREATMENT” (Yeda Research and Development Co. Ltd., priority 2020, published 2023).
